How the values were obtained:
Rattus norvegicus [1] = assay: Antiinflammatory activity in rat air pouch model assessed as inhibition of carrageenan-induced paw edema; format: functional
Rattus norvegicus [2] = organism: Rattus norvegicus; assay: Antiinflammatory activity in rat air pouch model assessed as inhibition of carrageenan-induced inflammatory hyperalgesia; format: functional
Rattus norvegicus [3] = organism: Rattus norvegicus; assay: Antiarthritic activity in rat assessed as inhibition of adjuent-induced arthritic pain; format: functional
Rattus norvegicus [4] = organism: Rattus norvegicus; assay: Antiinflammatory activity in rat air pouch model assessed as inhibition of carrageenan-induced PGE2 production; format: functional
Cynomolgus monkey = assay: Half life in cynomolgus monkey; format: ADME, organism-based, Macaca fascicularis; conditions: in vivo
Homo sapiens = organism: Homo sapiens; assay: (§1) Half life in human; format: ADME, organism-based; conditions: in vivo
Liver microsomes = assay: Metabolic stability in human liver microsomes assessed as compound remaining; format: ADME, Microsome
[5] = molecular target: T1, Prostaglandin G/H synthase 2 (Homo sapiens, UniProt P35354)
T1 sequence (P35354 whole entry): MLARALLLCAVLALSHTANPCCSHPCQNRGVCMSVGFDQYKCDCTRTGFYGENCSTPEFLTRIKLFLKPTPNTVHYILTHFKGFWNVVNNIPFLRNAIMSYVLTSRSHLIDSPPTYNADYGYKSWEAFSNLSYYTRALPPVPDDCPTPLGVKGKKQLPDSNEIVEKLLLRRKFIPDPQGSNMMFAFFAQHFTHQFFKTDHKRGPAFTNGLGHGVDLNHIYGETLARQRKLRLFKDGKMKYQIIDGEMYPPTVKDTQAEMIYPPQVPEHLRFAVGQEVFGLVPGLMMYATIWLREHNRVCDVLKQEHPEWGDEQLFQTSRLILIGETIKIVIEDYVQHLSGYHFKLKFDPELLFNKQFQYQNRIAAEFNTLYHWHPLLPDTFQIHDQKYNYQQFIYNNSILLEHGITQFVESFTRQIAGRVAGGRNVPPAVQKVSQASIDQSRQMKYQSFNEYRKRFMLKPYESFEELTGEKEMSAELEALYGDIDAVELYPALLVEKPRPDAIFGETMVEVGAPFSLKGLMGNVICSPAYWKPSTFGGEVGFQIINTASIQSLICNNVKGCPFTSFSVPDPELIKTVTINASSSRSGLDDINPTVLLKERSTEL

Rattus norvegicus [6] = organism: Rattus norvegicus; assay: animal or person; conditions: read-out: INH
[7] = molecular target: Prostaglandin G/H synthase 1 (Homo sapiens, UniProt P23219)
Chain of Prostaglandin G/H synthase 1 (P23219 whole entry): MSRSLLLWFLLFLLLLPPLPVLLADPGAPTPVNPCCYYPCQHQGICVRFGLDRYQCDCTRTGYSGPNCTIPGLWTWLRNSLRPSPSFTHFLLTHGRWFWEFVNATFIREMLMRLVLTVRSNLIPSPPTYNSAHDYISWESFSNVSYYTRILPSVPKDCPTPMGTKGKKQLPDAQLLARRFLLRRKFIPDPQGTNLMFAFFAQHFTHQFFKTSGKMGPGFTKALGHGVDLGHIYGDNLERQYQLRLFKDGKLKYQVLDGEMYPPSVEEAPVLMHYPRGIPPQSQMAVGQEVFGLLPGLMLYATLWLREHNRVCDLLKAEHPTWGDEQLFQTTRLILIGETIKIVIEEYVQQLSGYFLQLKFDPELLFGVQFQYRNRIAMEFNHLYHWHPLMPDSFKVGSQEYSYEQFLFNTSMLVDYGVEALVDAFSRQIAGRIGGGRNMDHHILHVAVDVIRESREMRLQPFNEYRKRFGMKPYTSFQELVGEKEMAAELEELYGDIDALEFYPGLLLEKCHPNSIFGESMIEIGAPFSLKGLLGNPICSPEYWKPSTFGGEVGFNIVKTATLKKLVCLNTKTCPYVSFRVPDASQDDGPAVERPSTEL

[8] = Half life in rat; format: ADME, organism-based; conditions: in vivo
[9] = Half life in dog; format: ADME, organism-based, Canis lupus familiaris; conditions: in vivo
[10] = as §1; format: ADME, organism-based; conditions: in vivo
Rattus norvegicus [11] = organism: Rattus norvegicus; assay: animal or person; conditions: read-out: INH; remark: listed apart in the source

Work on `O=C(O)C1=Cc2cc(Cl)cc(Cl)c2O[C@@H]1C(F)(F)F` yielded an ED50 (Rattus norvegicus [1]) of 0.54 mg/kg, an ED50 (Rattus norvegicus [2]) of 2.6 mg/kg and an ED50 (Rattus norvegicus [3]) of 0.03 mg/kg. It also gave an ED50 (Rattus norvegicus [4]) of 0.54 mg/kg, a t1/2 (Cynomolgus monkey) of 14.2 h and a t1/2 (Homo sapiens) of 360 h. It also gave a Stability (Liver microsomes) of 100%.

For `CC(C)COc1c(Cl)cc2c(c1Cl)O[C@@H](C(F)(F)F)C(C(=O)O)=C2`, the IC50 [5] was less than 0.028 µM.

`CC(C)(C)c1cc2c(cc1Cl)C=C(C(=O)O)C(C(F)(F)F)O2` (configuration not stated) showed a Stability (Liver microsomes) of 51% and an inhibition in vivo at 10 mg/kg (Rattus norvegicus [6]) of 100%.

With `CCCc1cc2c(cc1Cl)C=C(C(=O)O)C(C(F)(F)F)O2` (configuration not stated) the inhibition in vivo at 10 mg/kg (Rattus norvegicus [6]) was 49%.

`CC(C)CCc1cc2c(cc1Cl)C=C(C(=O)O)C(C(F)(F)F)O2` (configuration not stated) showed an inhibition in vivo at 10 mg/kg (Rattus norvegicus [6]) of 51%.

With `CC(C)CSc1cc2c(cc1Cl)C=C(C(=O)O)C(C(F)(F)F)O2` (configuration not stated) the inhibition in vivo at 10 mg/kg (Rattus norvegicus [6]) was 30%.

`CC(C)CN(C)c1cc2c(cc1Cl)C=C(C(=O)O)C(C(F)(F)F)O2` (configuration not stated) gave an inhibition in vivo at 10 mg/kg (Rattus norvegicus [6]) of 52%.

`CCC(CC)COc1cc2c(cc1Cl)C=C(C(=O)O)C(C(F)(F)F)O2` (configuration not stated) showed an inhibition in vivo at 10 mg/kg (Rattus norvegicus [6]) of 42%.

With `Nc1c(Cl)ccc2c1C=C(C(=O)O)C(C(F)(F)F)O2` (configuration not stated) the IC50 [7] was greater than 100 µM.

Work on `CCOc1c(Cl)ccc2c1C=C(C(=O)O)C(C(F)(F)F)O2` (configuration not stated) yielded an IC50 [7] greater than 100 µM and an IC50 [5] greater than 100 µM.

For `O=C(O)C1=Cc2cc(Cl)c(OCC3CCCC3)c(Cl)c2OC1C(F)(F)F` (configuration not stated), the IC50 [7] was less than 0.14 µM and the IC50 [5] was less than 0.006 µM.

Work on `CCC(CC)COc1c(Cl)cc2c(c1Cl)OC(C(F)(F)F)C(C(=O)O)=C2` (configuration not stated) yielded an IC50 [5] of less than 0.021 µM.

`CC(C)(C)Oc1c(Cl)cc2c(c1Cl)OC(C(F)(F)F)C(C(=O)O)=C2` (configuration not stated) showed an IC50 [7] of less than 0.14 µM and an IC50 [5] of less than 0.028 µM.

Compound `O=C(O)C1=Cc2cc(Cl)c(OCC3CCCCC3)c(Cl)c2OC1C(F)(F)F` (configuration not stated) has an IC50 [5] of less than 0.034 µM.

Work on `CC(C)(C)c1cc2c(cc1Cl)C=C(C(=O)O)[C@@H](C(F)(F)F)O2` [TIGEMOCOXIB] yielded an ED50 (Rattus norvegicus [1]) of 2.7 mg/kg, an ED50 (Rattus norvegicus [2]) of 4 mg/kg and an ED50 (Rattus norvegicus [3]) of 0.08 mg/kg. It also gave an ED50 (Rattus norvegicus [4]) of 0.43 mg/kg, a half-life [8] of 4 h and a half-life [9] of 18 h. The half-life [10] was 34 h and the inhibition in vivo at 2 mg/kg (Rattus norvegicus [11]) was 100%.

Reference: ChEMBL document CHEMBL1629461, “The novel benzopyran class of selective cyclooxygenase-2 inhibitors. Part 2: the second clinical candidate having a shorter and favorable human half-life” (Bioorg Med Chem Lett, 2010)
